From the NIST ThermoML archive (doi:10.1016/j.tca.2016.09.005)
± gives the expanded uncertainty stated by the source.

Test: xn = mol fraction of the nth substance listed
Conditions: 100 kPa, Liquid; for speed of sound: Frequency=3 MHz, Sing-around technique in a fixed-path interferometer; for mass density: Vibrating tube method

OCCCO [propan-1,3-diol] + CCO
Conditions | mass density, 283.15 K [kg/m3] | mass density, 293.15 K [kg/m3] | mass density, 303.15 K [kg/m3] | mass density, 313.15 K [kg/m3] | speed of sound, 283.15 K [m/s] | speed of sound, 293.15 K [m/s] | speed of sound, 303.15 K [m/s] | speed of sound, 313.15 K [m/s]
x2 = 0 | 1058.85 ± 1.3 | 1052.61 ± 1.2 | 1046.36 ± 1.2 | 1040.07 ± 1.2 | 1659.5 ± 2.6 | 1636.3 ± 2.6 | 1613.6 ± 2.6 | 1591.1 ± 2.6
x2 = 0.05 | 1049.7 ± 1.2 | 1043.39 ± 1.2 | 1037.07 ± 1.2 | 1030.71 ± 1.2 | 1642.4 ± 2.6 | 1618.9 ± 2.6 | 1595.7 ± 2.6 | 1572.9 ± 2.6
x2 = 0.1 | 1040.25 ± 1.2 | 1033.87 ± 1.2 | 1027.48 ± 1.2 | 1021.03 ± 1.2 | 1623.9 ± 2.6 | 1600.1 ± 2.6 | 1576.5 ± 2.6 | 1553.2 ± 2.6
x2 = 0.15 | 1030.34 ± 1.1 | 1023.87 ± 1.1 | 1017.39 ± 1.1 | 1010.85 ± 1.1 | 1605.2 ± 2.5 | 1580.9 ± 2.5 | 1556.8 ± 2.5 | 1533.1 ± 2.5
x2 = 0.2 | 1020.03 ± 1.1 | 1013.44 ± 1.1 | 1006.78 ± 1.1 | 999.86 ± 1.1 | 1585.7 ± 2.5 | 1560.9 ± 2.5 | 1536.5 ± 2.5 | 1511 ± 2.5
x2 = 0.2499 | 1009.63 ± 1.1 | 1003 ± 1.1 | 996.35 ± 1.1 | 989.64 ± 1.1 | 1565.3 ± 2.5 | 1540.2 ± 2.4 | 1515.3 ± 2.4 | 1490.6 ± 2.4
x2 = 0.3004 | 998.62 ± 1.1 | 991.91 ± 1.1 | 985.17 ± 1.1 | 978.36 ± 1.1 | 1544.3 ± 2.4 | 1518.7 ± 2.4 | 1493.3 ± 2.4 | 1468.1 ± 2.4
x2 = 0.3502 | 987.34 ± 1 | 980.54 ± 1 | 973.69 ± 1 | 966.78 ± 1 | 1523 ± 2.4 | 1496.8 ± 2.4 | 1470.9 ± 2.4 | 1445.3 ± 2.4
x2 = 0.4 | 975.76 ± 1 | 968.84 ± 1 | 961.9 ± 1 | 954.88 ± 1 | 1501 ± 2.3 | 1474.2 ± 2.3 | 1447.8 ± 2.3 | 1421.7 ± 2.3
x2 = 0.4501 | 963.57 ± 1 | 956.56 ± 1 | 949.5 ± 1 | 942.36 ± 1 | 1478.2 ± 2.3 | 1450.8 ± 2.3 | 1423.8 ± 2.3 | 1397.1 ± 2.3
x2 = 0.5004 | 950.95 ± 1 | 943.82 ± 1 | 936.66 ± 1 | 929.42 ± 1 | 1454.4 ± 2.3 | 1426.5 ± 2.3 | 1399 ± 2.3 | 1371.7 ± 2.3
x2 = 0.5501 | 938.39 ± 0.99 | 931.16 ± 0.99 | 923.88 ± 0.99 | 916.52 ± 0.99 | 1431.2 ± 2.2 | 1402.8 ± 2.2 | 1374.6 ± 2.2 | 1346.8 ± 2.2
x2 = 0.6001 | 924.91 ± 0.98 | 917.56 ± 0.98 | 910.16 ± 0.98 | 902.67 ± 0.98 | 1406.4 ± 2.2 | 1377.6 ± 2.2 | 1348.8 ± 2.2 | 1320.4 ± 2.2
x2 = 0.65 | 911.17 ± 0.97 | 903.69 ± 0.97 | 896.16 ± 0.97 | 888.54 ± 0.97 | 1382.1 ± 2.2 | 1352.5 ± 2.2 | 1323.2 ± 2.2 | 1294.2 ± 2.2
x2 = 0.7 | 896.69 ± 0.96 | 889.09 ± 0.96 | 881.42 ± 0.96 | 873.66 ± 0.96 | 1356.6 ± 2.1 | 1326.3 ± 2.1 | 1296.4 ± 2.1 | 1266.8 ± 2.1
x2 = 0.7503 | 881.71 ± 0.96 | 873.96 ± 0.96 | 866.15 ± 0.96 | 858.23 ± 0.96 | 1331.1 ± 2.1 | 1300.1 ± 2.1 | 1269.4 ± 2.1 | 1239.1 ± 2.1
x2 = 0.8001 | 866.31 ± 0.95 | 858.42 ± 0.95 | 850.47 ± 0.95 | 842.41 ± 0.95 | 1304.9 ± 2.1 | 1273.3 ± 2.1 | 1242 ± 2.1 | 1211.1 ± 2.1
x2 = 0.8502 | 850.07 ± 0.95 | 842.04 ± 0.95 | 833.92 ± 0.95 | 825.7 ± 0.95 | 1278.5 ± 2 | 1246.2 ± 2 | 1214.2 ± 2 | 1182.7 ± 2
x2 = 0.9 | 833.71 ± 0.95 | 825.51 ± 0.95 | 817.24 ± 0.95 | 808.85 ± 0.95 | 1252.1 ± 2 | 1219 ± 2 | 1186.3 ± 2 | 1154 ± 2
x2 = 0.95 | 816.56 ± 0.95 | 808.22 ± 0.95 | 799.79 ± 0.95 | 791.23 ± 0.95 | 1225.1 ± 2 | 1191.3 ± 2 | 1157.9 ± 2 | 1125 ± 2
